The text below walks through data of patent US20240166646A1, “1H-PYRROLO[2,3-B]PYRIDINE DERIVATIVES AS BCL-2 INHIBITORS FOR THE TREATMENT OF NEOPLASTIC AND AUTOIMMUNE DISEASES” (Newave Pharmaceutical Inc., priority 2020, published 2024).

pIC50: −log10 of the molar value. Where a name gives a salt, the structure may show the parent alone.

Chain of Bcl-2 (P10415 whole entry): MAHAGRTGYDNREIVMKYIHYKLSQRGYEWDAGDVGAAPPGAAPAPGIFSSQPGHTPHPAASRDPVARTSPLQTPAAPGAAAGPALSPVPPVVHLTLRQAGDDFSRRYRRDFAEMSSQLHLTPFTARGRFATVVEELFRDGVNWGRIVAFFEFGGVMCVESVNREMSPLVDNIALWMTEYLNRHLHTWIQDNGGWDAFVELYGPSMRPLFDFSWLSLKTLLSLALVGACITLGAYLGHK

The test deals with Bcl-2 (Homo sapiens (Human), UniProt P10415). Briefly: Bcl-2 competition binding (fluorescence polarization) assay. The settings on record: fluorescein labeled BH3 peptide 15 nM, Bcl-2 protein 30 nM, 3 hours of incubation at room temperature. How it is done:
Biological Example 1: Bcl-2 Competition Binding (Fluorescence Polarization) Assay
The fluorescence-labeled 23 amino acid peptide BH3 was purchased from CalBiochem ([…]). […] This binding assay was performed in 96-well plate and with each assay contained 15 and 30 nM of labeled peptide and purified Bcl-2 protein (purchased from R&D Systems, Inc). The assay buffer contained 20 mM Hepes (pH 7.0), 50 mM KCl, 5 mM MgCl2, 20 mM Na2MoO4, 0.1 mg/mi Bovine Gamma Globulin and 0.01% NP40. Compounds were diluted in DMS0 and added to the final assay with concentration range from 20 μM to 2 nM. The polarization degree (mP) value was determined by BioTek Synergy II with background subtraction after 3 hours of incubation at room temperature. IC50 was calculated using Prism software with sigmoidal dose-response curve fitting. ABT-737 was used as reference compound. Such assays, carried out with a range of doses of test compounds, allowed the determination of an approximate IC50 value.
In general terms: Fluorescence polarisation rises when a labelled molecule tumbles more slowly, as on binding a larger partner.
For orientation: pIC50 means the negative decadic logarithm of the IC50, by convention in mol/L. For `O=C(NS(=O)(=O)c1ccc(NCC2CCOCC2)c([N+](=O)[O-])c1)c1ccc(N2CCC3(CC2)CC(N2CCC[C@H]2c2ccccc2-c2cccnc2)C3)cc1N1c2cc3cc[nH]c3nc2O[C@@H]2COC[C@H]21` [Example 13, 2-[(11R,15S)-13,16-dioxa-2,4,10-triazatetracyclo[7.7.0.0^{3,7}.0^{11,15}]hexadeca-1(9),2,5,7-tetraen-10-yl]-N-{3-nitro-4-[(oxan-4-ylmethyl)amino]benzenesulfonyl}-4-{2-[(2S)-2-[2-(pyridin-3-yl)phenyl]pyrrolidin-1-yl]-7-azaspiro[3.5]nonan-7-yl}benzamide hydrochloride], the pIC50 was 8.62.
Turning to `O=C(NS(=O)(=O)c1ccc(NCC2CCOCC2)c([N+](=O)[O-])c1)c1ccc(N2CCC3(CC2)CC(N2CCC[C@H]2c2ccc(Cl)cc2)C3)cc1N1c2cc3cc[nH]c3nc2O[C@@H]2COC[C@H]21` [Example 34, 4-{2-[(2S)-2-(4-chlorophenyl)pyrrolidin-1-yl]-7-azaspiro[3.5]nonan-7-yl}-2-[(11R,15S)-13,16-dioxa-2,4,10-triazatetracyclo[7.7.0.0^{3,7}.0^{11,15}]hexadeca-1(9),2,5,7-tetraen-10-yl]-N-{3-nitro-4-[(oxan-4-ylmethyl)amino]benzenesulfonyl}benzamide], the pIC50 is 8.46.
To `CC(C)Nc1ccccc1[C@@H]1CCCN1C1CC2(CCN(c3ccc(C(=O)NS(=O)(=O)c4ccc(NCC5CCOCC5)c([N+](=O)[O-])c4)c(N4c5cc6cc[nH]c6nc5O[C@@H]5COC[C@H]54)c3)CC2)C1` [Example 21, 2-[(11R,15S)-13,16-dioxa-2,4,10-triazatetracyclo[7.7.0.0^{3,7}.0^{11,15}]hexadeca-1(9),2,5,7-tetraen-10-yl]-4-{2-[(2S)-2-[2-(isopropylamino)phenyl]pyrrolidin-1-yl]-7-azaspiro[3.5]nonan-7-yl}-N-{3-nitro-4-[(oxan-4-ylmethyl)amino]benzenesulfonyl}benzamide hydrochloride] belongs 9.62; to `N#Cc1ccccc1[C@@H]1CCCN1C1CC2(CCN(c3ccc(C(=O)NS(=O)(=O)c4ccc(NCC5CCOCC5)c([N+](=O)[O-])c4)c(N4c5cc6cc[nH]c6nc5O[C@@H]5COC[C@H]54)c3)CC2)C1` [Example 26, 4-{2-[(2S)-2-(2-cyanophenyl)pyrrolidin-1-yl]-7-azaspiro[3.5]nonan-7-yl}-2-[(11R,15S)-13,16-dioxa-2,4,10-triazatetracyclo[7.7.0.0^{3,7}.0^{11,15}]hexadeca-1(9),2,5,7-tetraen-10-yl]-N-{3-nitro-4-[(oxan-4-ylmethyl)amino]benzenesulfonyl}benzamide], 9.15; to `CC(C)S(=O)(=O)c1ccccc1[C@@H]1CCCN1C1CC2(CCN(c3ccc(C(=O)NS(=O)(=O)c4ccc(NCC5CCOCC5)c([N+](=O)[O-])c4)c(N4c5cc6cc[nH]c6nc5O[C@@H]5COC[C@H]54)c3)CC2)C1` [Example 28, 2-[(11R,15S)-13,16-dioxa-2,4,10-triazatetracyclo[7.7.0.0^{3,7}.0^{11,15}]hexadeca-1(9),2,5,7-tetraen-10-yl]-N-{3-nitro-4-[(oxan-4-ylmethyl)amino]benzenesulfonyl}-4-{2-[(2S)-2-[2-(propane-2-sulfonyl)phenyl]pyrrolidin-1-yl]-7-azaspiro[3.5]nonan-7-yl}benzamide], 7.51.
To `CC1(C)C[C@H](c2ccccc2[C@@H]2CCCN2C2CC3(CCN(c4ccc(C(=O)NS(=O)(=O)c5ccc(NCC6CCOCC6)c([N+](=O)[O-])c5)c(N5c6cc7cc[nH]c7nc6O[C@@H]6COC[C@H]65)c4)CC3)C2)CCO1` [Example 32, 4-{2-[(2S)-2-{2-[(4R)-2,2-dimethyloxan-4-yl]phenyl}pyrrolidin-1-yl]-7-azaspiro[3.5]nonan-7-yl}-2-[(11R,15S)-13,16-dioxa-2,4,10-triazatetracyclo[7.7.0.0^{3,7}.0^{11,15}]hexadeca-1(9),2,5,7-tetraen-10-yl]-N-{3-nitro-4-[(oxan-4-ylmethyl)amino]benzenesulfonyl}benzamide] belongs 7.80; to `NC(=O)c1ccccc1[C@@H]1CCCN1C1CC2(CCN(c3ccc(C(=O)NS(=O)(=O)c4ccc(NCC5CCOCC5)c([N+](=O)[O-])c4)c(N4c5cc6cc[nH]c6nc5O[C@@H]5COC[C@H]54)c3)CC2)C1` [Example 30, 4-{2-[(2S)-2-(2-carbamoylphenyl)pyrrolidin-1-yl]-7-azaspiro[3.5]nonan-7-yl}-2-[(11R,15S)-13,16-dioxa-2,4,10-triazatetracyclo[7.7.0.0^{3,7}.0^{11,15}]hexadeca-1(9),2,5,7-tetraen-10-yl]-N-{3-nitro-4-[(oxan-4-ylmethyl)amino]benzenesulfonyl}benzamide], 7.80.
As for `O=C(NS(=O)(=O)c1ccc(NCC2CCOCC2)c([N+](=O)[O-])c1)c1ccc(N2CCC3(CC2)CC(N2CCC[C@H]2c2ccccc2Cl)C3)cc1N1c2cc3cc[nH]c3nc2O[C@@H]2COC[C@H]21` [Example 23, 4-{2-[(2S)-2-(2-chlorophenyl)pyrrolidin-1-yl]-7-azaspiro[3.5]nonan-7-yl}-2-[(11R,15S)-13,16-dioxa-2,4,10-triazatetracyclo[7.7.0.0^{3,7}.0^{11,15}]hexadeca-1(9),2,5,7-tetraen-10-yl]-N-{3-nitro-4-[(oxan-4-ylmethyl)amino]benzenesulfonyl}benzamide hydrochloride], the figure is 9.23; as for `CC(C)Cc1ccccc1[C@@H]1CCCN1C1CC2(CCN(c3ccc(C(=O)NS(=O)(=O)c4ccc(NCC5CCOCC5)c([N+](=O)[O-])c4)c(N4c5cc6cc[nH]c6nc5O[C@@H]5COC[C@H]54)c3)CC2)C1` [Example 35, 4-(2-((S)-2-(2-isobutylphenyl)pyrrolidin-1-yl)-7-azaspiro[3.5]nonan-7-yl)-N-((3-nitro-4-(((tetrahydro-2H-pyran-4-yl)methyl)amino)phenyl)sulfonyl)-2-((5aR,8aS)-5a,6,8,8a-tetrahydrofuro[3,4-b]pyrrolo[3′,2′:5,6]pyrido[3,2-e][1,4]oxazin-5(1H)-yl)benzamide], 9.24; as for `O=C(NS(=O)(=O)c1ccc(NCC2CCOCC2)c([N+](=O)[O-])c1)c1ccc(N2CCC3(CC2)CC(N2CCC[C@H]2c2ccccc2C2CCC2)C3)cc1N1c2cc3cc[nH]c3nc2O[C@@H]2COC[C@H]21` [Example 22, 4-{2-[(2S)-2-(2-cyclobutylphenyl)pyrrolidin-1-yl]-7-azaspiro[3.5]nonan-7-yl}-2-[(11R,15S)-13,16-dioxa-2,4,10-triazatetracyclo[7.7.0.0^{3,7}.0^{11,15}]hexadeca-1(9),2,5,7-tetraen-10-yl]-N-{3-nitro-4-[(oxan-4-ylmethyl)amino]benzenesulfonyl}benzamide], 10.00.
Turning to `O=C(NS(=O)(=O)c1ccc(NCC2CCOCC2)c([N+](=O)[O-])c1)c1ccc(N2CCC3(CC2)CC(N2CCC[C@H]2c2ccccc2-c2ccncc2)C3)cc1N1c2cc3cc[nH]c3nc2O[C@@H]2COC[C@H]21` [Example 14, 2-[(11R,15S)-13,16-dioxa-2,4,10-triazatetracyclo[7.7.0.0^{3,7}.0^{11,15}]hexadeca-1(9),2,5,7-tetraen-10-yl]-N-{3-nitro-4-[(oxan-4-ylmethyl)amino]benzenesulfonyl}-4-{2-[(2S)-2-[2-(pyridin-4-yl)phenyl]pyrrolidin-1-yl]-7-azaspiro[3.5]nonan-7-yl}benzamide hydrochloride], the pIC50 is 9.13.
For `O=C(NS(=O)(=O)c1ccc(NCC2CCOCC2)c([N+](=O)[O-])c1)c1ccc(N2CCC3(CC2)CC(N2CCC[C@H]2c2ccccc2-c2ccccn2)C3)cc1N1c2cc3cc[nH]c3nc2O[C@@H]2COC[C@H]21` [Example 18, 2-[(11R,15S)-13,16-dioxa-2,4,10-triazatetracyclo[7.7.0.0^{3,7}.0^{11,15}]hexadeca-1(9),2,5,7-tetraen-10-yl]-N-{3-nitro-4-[(oxan-4-ylmethyl)amino]benzenesulfonyl}-4-{2-[(2S)-2-[2-(pyridin-2-yl)phenyl]pyrrolidin-1-yl]-7-azaspiro[3.5]nonan-7-yl}benzamide], the pIC50 was 9.38.
As for `O=C(NS(=O)(=O)c1ccc(NCC2CCOCC2)c([N+](=O)[O-])c1)c1ccc(N2CCC3(CC2)CC(N2CCC[C@H]2c2ccccc2)C3)cc1N1c2cc3cc[nH]c3nc2O[C@@H]2COC[C@H]21` [Example 12, 2-[(11R,15S)-13,16-dioxa-2,4,10-triazatetracyclo[7.7.0.0^{3,7}.0^{11,15}]hexadeca-1(9),2,5,7-tetraen-10-yl]-N-{3-nitro-4-[(oxan-4-ylmethyl)amino]benzenesulfonyl}-4-{2-[(2S)-2-phenylpyrrolidin-1-yl]-7-azaspiro[3.5]nonan-7-yl}benzamide hydrochloride], the figure is 9.79.
With `O=C(NS(=O)(=O)c1ccc(NCC2CCOCC2)c([N+](=O)[O-])c1)c1ccc(N2CCC3(CC2)CC(N2CCC[C@H]2c2cccc(Cl)c2)C3)cc1N1c2cc3cc[nH]c3nc2O[C@@H]2COC[C@H]21` [Example 33, 4-{2-[(2S)-2-(3-chlorophenyl)pyrrolidin-1-yl]-7-azaspiro[3.5]nonan-7-yl}-2-[(11R,15S)-13,16-dioxa-2,4,10-triazatetracyclo[7.7.0.0^{3,7}.0^{11,15}]hexadeca-1(9),2,5,7-tetraen-10-yl]-N-{3-nitro-4-[(oxan-4-ylmethyl)amino]benzenesulfonyl}benzamide], the pIC50 was 8.85.
